Measured values taken from patent US20220370416A1, “COMPOUNDS AND METHODS FOR TARGETED DEGRADATION OF KRAS” (Arvinas Operations, Inc., priority 2020, published 2022).

Biological target: KRAS^G12C (Homo sapiens, UniProt P01116, G12C)
Experiment: KRAS^G12C degradation by immunoblot in NCI-H23 cells
Assay type: cell-based
Set-up: MRTX849-VHL bifunctional compounds engage and degrade endogenous KRAS^G12C in NCI-H2030 cells; endogenous in cells; host or cells: NCI-H2030, NCI-H358, MIA PaCa-2, SW1573, NCI-H23
Procedure: NCI-H2030 (CRL-5914), MIA PaCa-2 (CRL-1420), NCI-H23 (CRL-5800), NCI-H358 (CRL-5807), and HCT-116 (CCL-247) cells were obtained from ATCC, expanded immediately, and frozen down. Vials were thawed and used within 20 passages. SW1573 cells were a gift from Arvinas and were handled in the same manner. NCI-H2030, NCI-H23, and NCI-H358 were cultured in RPMI (ATCC30-2001) supplemented with 10% FBS (Biological Industries; cat. no. S1480) and 1% Penicillin-Streptomycin (ThermoFisher; cat. no. 15140122). HCT-116 cells were maintained in high glucose DMEM (ThermoFisher; cat. no. 11965084) supplemented as above. MIA PaCa-2 cells were cultured in high glucose DMEM supplemented with 10% FBS, 2.5% horse serum (ThermoFisher; cat. no. 26050-088; lot 2109875), and 1% Penicillin-Streptomycin. SW1573 cells were maintained in DMEM/F12 Nutrient Mix with GlutaMAX supplement (ThermoFisher; cat. no. 10565018) with 10% FBS and 1% Penicillin-Streptomycin added. DPBS (ThermoFisher; cat. no. 14190250) was used to wash cells and 0.25% Trypsin-EDTA (ThermoFisher; cat. no. […]) was used to detach cells for passaging. […] The VHL ligand was generously provided by Arvinas.
Between 2.5×10^5 and 6.0×10^5 cells were seeded into 6-well plates (Corning; cat. no. 353046). The next day, media was removed and cells were treated with 2.5 μM LC-2 for 1, 2, 4, 8, 12, or 24 hours. […] For 24-hour time course experiments, cells were treated at the indicated times and concurrently lysed in RIPA buffer supplemented as described previously. For longer time course experiments and time courses in which cells were treated with LC-2 or LC-2 Epimer, cells were concurrently treated with either compound, then lysed by scraping in RIPA buffer at the indicated time points.
Between 2.5×10^5 and 5.0×10^5 cells were seeded into 6-well plates. The next day cells were pretreated with DMSO, 500 μM or 1 mM VHL ligand, 1 μM epoxomicin, 1 μM […], or 100 nM […] bafilomycin A1 for 1 hour. Media was then removed and cells were treated with DMSO, 2.5 μM LC-2 plus DMSO, 2.5 μM LC-2 Epimer plus DMSO, or co-treated with 2.5 μM LC-2 and the corresponding competitor/inhibitor. H2030 cells were treated for 4 hours and H23 cells were treated for 24 hours, after which cells were lysed by scraping in RIPA buffer supplemented as described previously.
Cell lysates were clarified at 21000×g for 15 mins at 4° C. Protein levels were quantified using a 50:1 mixture of bicinchoninic acid solution (Millipore Sigma; cat. no. B9643) and 4% (w/v) copper(II) sulfate solution (Millipore Sigma; cat. no. C2284) incubated at 37° C. for 30 mins. Absorbance values at 560 nm were read on an EnVision 2101 Multilabel Reader (PerkinElmer). Proteins were separated using 26 well Criterion TGX precast 4-15% (cat. no. 5671085) or 8-16% (cat. no. 5671105) gradient midi gels. After separation, proteins were transferred to nitrocellulose or PVDF membranes at 76 V for 2 hours at 4° C. Blots were then blocked in 5% milk in tris-buffered saline with Tween-20 (TBST; 20 mM Tris, 150 mM NaCl, 0.02% Tween-20). After blocking, blots were incubated in primary antibody overnight (12-18 hours) at 4° C. or for 2 hours at room temperature with mild agitation at the manufacturer's indicated dilution in either 5% milk or 5% BSA in TBST. Blots were then washed thrice with TBST for 5 mins at room temperature. After washing, blots were incubated with 1:5,000-1:10,000 of donkey anti-rabbit (GE Life Sciences; NA934) or sheep anti-mouse (GE Life Sciences; NA931) secondary antibody diluted in 5% milk for 1 hour at room temperature with mild agitation. Blots were again washed thrice with TBST for 5 mins. Chemiluminescent signal was generated using Amersham ECL Prime Western Blotting Detection Reagant (GE Life Sciences; cat. no. RPN2232) or SuperSignal West Femto Maximum Sensitivity Substrate (ThermoFisher; cat. no. 34095). Images were obtained using a Bio-Rad ChemiDoc Imager.

Compound: C=C(F)C(=O)N1CCN(c2nc(OC[C@@H]3CCCN3CCCOCCC(=O)N[C@H](C(=O)N3C[C@H](O)C[C@H]3C(=O)NCc3ccc(-c4scnc4C)cc3)C(C)(C)C)nc3c2CCN(c2cccc4cccc(Cl)c24)C3)C[C@@H]1CC#N [LC-2, (2S,4R)-1-((S)-2-(3-(3-((S)-2-(((7-(8-chloronaphthalen-1-yl)-4-((S)-3-(cyanomethyl)-4-(2-fluoroacryloyl)piperazin-1-yl)-5,6,7,8-tetrahydropyrido[3,4-d]pyrimidin-2-yl)oxy)methyl)pyrrolidin-1-yl)propoxy)propanamido)-3,3-dimethylbutanoyl)-4-hydroxy-N-(4-(4-methylthiazol-5-yl)benzyl)pyrrolidine-2-carboxamide]
- Dmax (NCI-H23): > 90%
- KRAS, two-way ANOVA significance vs DMSO (NCI-H23, 0.25 μM, FIG. 9B): * (* p < 0.05)
- duration of KRAS degradation (NCI-H23, 2.5 μM): sustained up to 72 hours
- time at which KRAS^G12C began to rebound (NCI-H23, 2.5 μM): 72 h
- time to maximal KRAS degradation (NCI-H23, 2.5 μM, 6, 24, 48, 72 hours): ≤ 24 h
- KRAS, two-way ANOVA significance vs DMSO (NCI-H23, 2.5 μM, 6 hours, FIG. 10B): ** (** p < 0.01)
- KRAS, two-way ANOVA significance vs DMSO (NCI-H23, 2.5 μM, 24 hours, FIG. 10B): **** (**** p < 0.001)
- KRAS, two-way ANOVA significance vs DMSO (NCI-H23, 10 μM, FIG. 9B): N.S.
- DC50 (NCI-H23, heterozygous KRAS^G12C): 250 ± 80 nM
- KRAS degradation (NCI-H23 cells, heterozygous): > 50%
